Earlier results, collected in PubChem BioAssay AID1259409 (Chemical Carcinogenesis Research Information System (CCRIS), 2018).

Test system: rodent chemically induced tumor inhibition, incidence and multiplicity
Assay: CCRIS tumor inhibitor studies

## CCCCCCCCCCCCCCCCCCCCCCCCCC(=O)N[C@@H](CO[C@H]1O[C@H](CO)[C@H](O)[C@H](O)[C@H]1O)[C@H](O)[C@H](O)CCCCCCCCCCCCCC
Carcinogen: N-BUTYL-N-(4-HYDROXYBUTYL)NITROSAMINE, 3817-11-6, Dose [Inhibitor]: 0, 0.1 UG/KG ONCE/WK FOR 17 WK BY INTRAVESICULAR INSTILLATION UNDER ANESTHESIA, BEGINNING 1 WK AFTER INITIATION PERIOD (, Route [Inhibitor]: INTRAVESICULAR, Species: MOUSE, Strain/Sex: C57BL6/FEMALE, Target Tissue: Type of Lesion: URINARY BLADDER: SQUAMOUS CELL CARCINOMA, Dose [Carcinogen]: 0.05% IN DRINKING WATER FOR 8 WK
  outcome: 0/13 (0%), 0/13 (0%), not significant
Carcinogen: N-BUTYL-N-(4-HYDROXYBUTYL)NITROSAMINE, 3817-11-6, Dose [Inhibitor]: 0, 10 UG/KG ONCE/WK FOR 17 WK BY INTRAVESICULAR INSTILLATION UNDER ANESTHESIA, BEGINNING 1 WK AFTER INITIATION PERIOD (S, Route [Inhibitor]: INTRAVESICULAR, Species: MOUSE, Strain/Sex: C57BL6/FEMALE, Target Tissue: Type of Lesion: URINARY BLADDER: SQUAMOUS CELL CARCINOMA, Dose [Carcinogen]: 0.05% IN DRINKING WATER FOR 8 WK
  outcome: 0/13 (0%), 2/11 (18.2%), not significant
Carcinogen: N-BUTYL-N-(4-HYDROXYBUTYL)NITROSAMINE, 3817-11-6, Dose [Inhibitor]: 0, 10 UG/KG ONCE/WK FOR 17 WK BY INTRAVESICULAR INSTILLATION UNDER ANESTHESIA, BEGINNING 1 WK AFTER INITIATION PERIOD (S, Route [Inhibitor]: INTRAVESICULAR, Species: MOUSE, Strain/Sex: C57BL6/FEMALE, Target Tissue: Type of Lesion: URINARY BLADDER: TRANSITIONAL CELL CARCINOMA, Dose [Carcinogen]: 0.05% IN DRINKING WATER FOR 8 WK
  tumour outcome (control, treated, inhibition, significance): 1/13 (7.7%), 3/11 (27.3%), -254%, not significant

## CC1=CC(=O)c2c(O)cccc2C1=O
Carcinogen: AZOXYMETHANE [25843-45-2], Dose [Inhibitor]: 200 PPM IN DIET FOR 4 WK BEGINNING 1 WK PRIOR TO FIRST CARCINOGEN DOSE (STUDY DURATION: 35 WK), Route [Inhibitor]: ORAL, Species: RAT, Strain/Sex: F344/MALE, Target Tissue: Type of Lesion: COLON: ADENOMA, Dose [Carcinogen]: 15 MG/KG BW 1X/WK FOR 3 WK (STUDY DURATION: 35 WK), Promoter: NONE
  tumour outcome (control, treated, inhibition, significance): 6/28 (21%), 3/29 (10%), 52%, not significant
Carcinogen: AZOXYMETHANE [25843-45-2], Dose [Inhibitor]: 200 PPM IN DIET FOR 4 WK BEGINNING 1 WK PRIOR TO FIRST CARCINOGEN DOSE (STUDY DURATION: 35 WK), Route [Inhibitor]: ORAL, Species: RAT, Strain/Sex: F344/MALE, Target Tissue: Type of Lesion: COLON: CARCINOMA, Dose [Carcinogen]: 15 MG/KG BW 1X/WK FOR 3 WK (STUDY DURATION: 35 WK), Promoter: NONE
  tumour outcome (control, treated, inhibition, significance): 8/28 (29%), 8/29 (28%), 3%, not significant
Carcinogen: AZOXYMETHANE [25843-45-2], Dose [Inhibitor]: 200 PPM IN DIET FOR 4 WK BEGINNING 1 WK PRIOR TO FIRST CARCINOGEN DOSE (STUDY DURATION: 35 WK), Route [Inhibitor]: ORAL, Species: RAT, Strain/Sex: F344/MALE, Target Tissue: Type of Lesion: SMALL INTESTINE: CARCINOMA, Dose [Carcinogen]: 15 MG/KG BW 1X/WK FOR 3 WK (STUDY DURATION: 35 WK), Promoter: NONE
  tumour outcome (control, treated, inhibition, significance): 7/28 (25%), 3/29 (10%), 60%, not significant

## CCCC/C=C\C=C/O[C@@H](CC)CCC(CCC)CCCCCCCC(=O)O[C@]1(O)[C@]2(O)O[C@H](CO[C@H]3O[C@H](CO)[C@H](O)[C@H](O)[C@H]3O)[C@H](O)[C@@]1(O)O2 (stereo partly specified)
Carcinogen: 7,12-DIMETHYLBENZ[A]ANTHRACENE, 57-97-6, Dose [Inhibitor]: 0, 85 NMOL IN 0.1 ML ACETONE 2/WK FOR 20 WK APPLIED 1 HR PRIOR TO EACH PROMOTER DOSE (STUDY DURATION: 21 WK), Route [Inhibitor]: DERMAL, Species: MOUSE, Strain/Sex: ICR/FEMALE, Target Tissue: Type of Lesion: SKIN: PAPILLOMA, Dose [Carcinogen]: 390 NMOL IN 0.1 ML ACETONE ONCE, Promoter: 12-O-TETRADECANOYLPHORBOL-13-ACETATE, 16561-29-8
  tumour outcome (control, treated, inhibition, significance): 100%, 68%, 32%, p<0.05

## CC(C)(C)C1=CC(=O)C=C(C(C)(C)C)C1=O
Carcinogen: 7,12-DIMETHYLBENZ[A]ANTHRACENE, 57-97-6, Dose [Inhibitor]: 0, 200 MG/KG BW/D FOR 3 WK BEGINNING 2 WK PRIOR TO CARCINOGEN DOSE (STUDY DURATION: 24 WK), Route [Inhibitor]: INTRAPERITONEAL, Species: RAT, Strain/Sex: SPRAGUE-DAWLEY/FEMALE, Target Tissue: Type of Lesion: MAMMARY GLAND: TUMOR, Dose [Carcinogen]: 33.3 MG/KG BW IN 0.25 ML CORN OIL ONCE AT 50 D OF AGE, Promoter: NONE USED
  tumour outcome (control, treated, inhibition, significance): 91%, 68%, 25%, not calculated

## O=C(O)CCSCCC(=O)O
Carcinogen: 7,12-DIMETHYLBENZ[A]ANTHRACENE, 57-97-6, Dose [Inhibitor]: 1.0% IN POWDERED DIET BEGINNING 1 WK POST CARCINOGEN DOSE FOR 51 WK (STUDY DURATION: 52 WK), Route [Inhibitor]: ORAL, Species: RAT, Strain/Sex: SPRAGUE-DAWLEY/FEMALE, Target Tissue: Type of Lesion: EAR DUCT: BENIGN TUMOR, Dose [Carcinogen]: 2.5 MG/100 G BW IN 0.5 ML SESAME OIL ONCE, Promoter: NONE USED
  tumour outcome (control, treated, inhibition, significance): 7/19 (37%), 2/19 (11%), 72%, not calculated
Carcinogen: 7,12-DIMETHYLBENZ[A]ANTHRACENE, 57-97-6, Dose [Inhibitor]: 1.0% IN POWDERED DIET BEGINNING 1 WK POST CARCINOGEN DOSE FOR 51 WK (STUDY DURATION: 52 WK), Route [Inhibitor]: ORAL, Species: RAT, Strain/Sex: SPRAGUE-DAWLEY/FEMALE, Target Tissue: Type of Lesion: MAMMARY GLAND: FIBROADENOMA, Dose [Carcinogen]: 2.5 MG/100 G BW IN 0.5 ML SESAME OIL ONCE, Promoter: NONE USED
  tumour outcome (control, treated, inhibition, significance): 15/19 (79%), 9/19 (47%), 40%, not calculated

## S=C=NCc1cc2ccccc2c2ccccc12
Carcinogen: BENZO[A]PYRENE, 50-32-8, Dose [Inhibitor]: 0, 5 UMOL IN ACETONE 4 HR PRIOR TO CARCINOGEN DOSE (STUDY DURATION: 20 WK), Route [Inhibitor]: DERMAL, Species: MOUSE, Strain/Sex: STRAIN-A/FEMALE, Target Tissue: Type of Lesion: SKIN: TUMOR, Dose [Carcinogen]: 0.1 UMOL IN ACETONE ONCE, Promoter: 12-O-TETRADECANOYLPHORBOL-13-ACETATE, 16561-29-8
  outcome: 85%, 95%, -12%, not significant at 15 wk; 95%, 95%, 0%, not significant at 20 wk

## N#C[Se]Cc1ccccc1
Carcinogen: 7,12-DIMETHYLBENZ[A]ANTHRACENE, 57-97-6, Dose [Inhibitor]: 0, 1 PPM (AS SELENIUM) IN DIET BEGINNING 2 WK PRIOR TO CARCINOGEN DOSE AND CONTINUING FOR DURATION OF STUDY (STUDY DURAT, Route [Inhibitor]: ORAL, Species: RAT, Strain/Sex: SPRAGUE-DAWLEY/FEMALE, Target Tissue: Type of Lesion: MAMMARY GLAND: ADENOCARCINOMA, Dose [Carcinogen]: 10 MG ONCE AT 55 D OF AGE, Promoter: NONE USED
  tumour outcome (control, treated, inhibition, significance): 88%, 56%, 36%, p<0.05
Carcinogen: 7,12-DIMETHYLBENZ[A]ANTHRACENE, 57-97-6, Dose [Inhibitor]: 0, 2 PPM (AS SELENIUM) IN DIET BEGINNING 2 WK PRIOR TO CARCINOGEN DOSE AND CONTINUING FOR DURATION OF STUDY (STUDY DURAT, Route [Inhibitor]: ORAL, Species: RAT, Strain/Sex: SPRAGUE-DAWLEY/FEMALE, Target Tissue: Type of Lesion: MAMMARY GLAND: ADENOCARCINOMA, Dose [Carcinogen]: 10 MG ONCE AT 55 D OF AGE, Promoter: NONE USED
  tumour outcome (control, treated, inhibition, significance): 88%, 40%, 55%, p<0.05
Carcinogen: 7,12-DIMETHYLBENZ[A]ANTHRACENE, 57-97-6, Dose [Inhibitor]: 0, 3 PPM (AS SELENIUM) IN DIET BEGINNING 2 WK PRIOR TO CARCINOGEN DOSE AND CONTINUING FOR DURATION OF STUDY (STUDY DURAT, Route [Inhibitor]: ORAL, Species: RAT, Strain/Sex: SPRAGUE-DAWLEY/FEMALE, Target Tissue: Type of Lesion: MAMMARY GLAND: ADENOCARCINOMA, Dose [Carcinogen]: 10 MG ONCE AT 55 D OF AGE, Promoter: NONE USED
  tumour outcome (control, treated, inhibition, significance): 88%, 40%, 55%, p<0.05
Carcinogen: 7,12-DIMETHYLBENZ[A]ANTHRACENE, 57-97-6, Dose [Inhibitor]: 0, 25 PPM IN DIET BEGINNING 2 WK PRIOR TO CARCINOGEN DOSE AND CONTINUING FOR 1 WK POST CARCINOGEN DOSE (STUDY DURATION:, Route [Inhibitor]: ORAL, Species: RAT, Strain/Sex: SPRAGUE-DAWLEY/FEMALE, Target Tissue: Type of Lesion: MAMMARY GLAND: TUMOR, Dose [Carcinogen]: 10 MG IN 1 ML OLIVE OIL ONCE AT 7 WK OF AGE, Promoter: NONE USED
  tumour outcome (control, treated, inhibition, significance): 19/21 (91%), 13/21 (62%), 32%, p<0.05
Carcinogen: BENZO[A]PYRENE, 50-32-8, Dose [Inhibitor]: 0, 0.045 UMOL/G DIET BEGINNING 1 WK PRIOR TO CARCINOGEN TREATMENT AND CONTINUING FOR 1 WK POST CARCINOGEN TREATMENT FOLL, Route [Inhibitor]: ORAL, Species: MOUSE, Strain/Sex: CD-1/FEMALE, Target Tissue: Type of Lesion: FORESTOMACH: PAPILLOMA, Dose [Carcinogen]: 1 MG IN 0.2 ML CORN OIL 2/WK FOR 4 WK, Promoter: NONE USED
  tumour outcome (control, treated, inhibition, significance): 85%, 79%, 7%, not significant
